{"source": "patent US10793892B2", "about": "“Method for detecting the presence of expanded spectrum β-lactamase-producing bacteria in a sample” (INSERM (INSTITUT NATIONAL DE LA SANTE ET DE LA RECHERCHE …, priority 2011, dated 2020)", "key": {"K. pneumoniae": {"test_system": "K. pneumoniae", "experiment": "ESBL NDP test using cultured strains", "format": "biochemical, Klebsiella pneumoniae", "design": "key: (+) and (−) referred to color change being, red to yellow or unchanged, respectively; (+) and (−) referred to color change being, red to yellow or unchanged, respectively", "description": "(§1) Strains were isolated on Mueller-Hinton agar (Biorad, Marnes-la-Coquette, France) and incubated at 37° C. for 16 h to 24 h before performing the NDP rapid ESBL test as follows. One calibrated inoculated loop (10 μl) of the tested strain was resuspended in 150 μl of 20 mM Tris-HCl lysis buffer previously distributed in Microbead tubes (Ultraclean Microbial DNA isolation kit Bead Tubes, MO BIO Laboratories, Carlsbad, USA). Mechanical lysis of bacteria was performed by strong agitation of Microbead tubes using a vortex adapter (MO BIO Laboratories) for 30 min at room temperature. This bacterial suspension was centrifuged at 10,000×g at room temperature for 5 min. Thirty μl of the supernatant was mixed in a well of a 96-well tray with 100 μl of a 1 ml solution made of 3 mg of purified cefotaxime sodium salt (Sigma-Aldrich, Saint-Quentin-Fallavier, France) in a pH 7.8 phenol red solution. […]. The phenol red solution was made by taking 2 ml of a concentrated pH 8 phenol solution (made from a mixture of phenol red 0.5% in distilled water) to which 16.6 ml of distilled water was added. The pH value was then adjusted to a 7.8 value by adding drops of a 1 N NaOH solution. Mixture of the phenol red solution and the enzymatic suspension being tested was incubated at 37° C. for 30 min. Similarly, culture extracts were analyzed in wells containing cefotaxime and tazobactam (4 mg/ml). Other concentrations of tazobactam and other ß-lactamase inhibitors were tested giving less clear results (data not shown). […] This definition of test positivity will be applied throughout the study."}, "E. cloacae": {"test_system": "E. cloacae", "experiment": "ESBL NDP test using cultured strains", "format": "biochemical, Enterobacter cloacae", "design": "key: (+) and (−) referred to color change being, red to yellow or unchanged, respectively; (+) and (−) referred to color change being, red to yellow or unchanged, respectively", "description": "as §1"}}}
{"compound": "CO/N=C(\\C(=O)N[C@@H]1C(=O)N2C(C(=O)O)=C(COC(C)=O)CS[C@H]12)c1csc(N)n1", "note": "[CTX, cefotaxime]", "values": [{"measurement": "ESBL NDP Test from: Colonies", "setting": "K. pneumoniae; K. pneumoniae 09.127, SHV-2a", "value": "+"}, {"measurement": "ESBL NDP Test from: Colonies", "setting": "K. pneumoniae; K. pneumoniae 09.138, TEM-3", "value": "+"}, {"measurement": "ESBL NDP Test from: Colonies", "setting": "K. pneumoniae; K. pneumoniae 09.158, SHV-12", "value": "+"}, {"measurement": "ESBL NDP Test from: Colonies", "setting": "K. pneumoniae; K. pneumoniae 09.162, TEM-52", "value": "+"}, {"measurement": "ESBL NDP Test from: Colonies", "setting": "K. pneumoniae; K. pneumoniae 09.169, TEM-52", "value": "+"}, {"measurement": "ESBL NDP Test from: Colonies", "setting": "K. pneumoniae; K. pneumoniae 09.181, SHV-2a", "value": "+"}, {"measurement": "ESBL NDP Test from: Colonies", "setting": "K. pneumoniae; K. pneumoniae 09.190, SHV-2a", "value": "−"}, {"measurement": "ESBL NDP Test from: Colonies", "setting": "K. pneumoniae; K. pneumoniae 09.200, TEM-3", "value": "+"}, {"measurement": "ESBL NDP Test from: Colonies", "setting": "K. pneumoniae; K. pneumoniae 09.217, SHV-5", "value": "+"}, {"measurement": "ESBL NDP Test from: Colonies", "setting": "K. pneumoniae; K. pneumoniae 09.45, SHV-12", "value": "+"}, {"measurement": "ESBL NDP Test from: Colonies", "setting": "K. pneumoniae; K. pneumoniae 09.60, SHV-5", "value": "+"}, {"measurement": "ESBL NDP Test from: Colonies", "setting": "K. pneumoniae; K. pneumoniae 09.99, SHV-2a", "value": "+"}, {"measurement": "ESBL NDP Test from: Colonies", "setting": "K. pneumoniae; K. pneumoniae 10.159, CTX-M-3", "value": "+"}, {"measurement": "ESBL NDP Test from: Colonies", "setting": "K. pneumoniae; K. pneumoniae ANG, DHA-1", "value": "−"}, {"measurement": "ESBL NDP Test from: Colonies", "setting": "K. pneumoniae; K. pneumoniae BG 1202 5484, Penicillinase", "value": "−"}, {"measurement": "Test (color change)", "setting": "K. pneumoniae; K. pneumoniae CTX-M-3, n=1", "value": "+"}, {"measurement": "Test (color change)", "setting": "K. pneumoniae; K. pneumoniae CTX-M-14, n=3", "value": "+"}, {"measurement": "Test (color change)", "setting": "K. pneumoniae; K. pneumoniae CTX-M-15, n=28", "value": "+"}, {"measurement": "Test (color change)", "setting": "K. pneumoniae; K. pneumoniae DHA-1, n=1", "value": "−"}, {"measurement": "Test (color change)", "setting": "K. pneumoniae; K. pneumoniae DHA-2, n=1", "value": "+"}, {"measurement": "ESBL NDP Test from: Colonies", "setting": "K. pneumoniae; K. pneumoniae FOR, DHA-2", "value": "+"}, {"measurement": "Test (color change)", "setting": "K. pneumoniae; K. pneumoniae GES-1, n=1", "value": "+"}, {"measurement": "ESBL NDP Test from: Colonies", "setting": "K. pneumoniae; K. pneumoniae MEK, CTX-M-15", "value": "+"}, {"measurement": "ESBL NDP Test from: Colonies", "setting": "K. pneumoniae; K. pneumoniae SHI, CTX-M-15", "value": "+"}, {"measurement": "Test (color change)", "setting": "K. pneumoniae; K. pneumoniae SHV-2a, n=2", "value": "−"}, {"measurement": "Test (color change)", "setting": "K. pneumoniae; K. pneumoniae SHV-2a, n=4", "value": "+"}, {"measurement": "Test (color change)", "setting": "K. pneumoniae; K. pneumoniae SHV-5, n=2", "value": "+"}, {"measurement": "Test (color change)", "setting": "K. pneumoniae; K. pneumoniae SHV-12, n=1", "value": "−"}, {"measurement": "Test (color change)", "setting": "K. pneumoniae; K. pneumoniae SHV-12, n=2", "value": "+"}, {"measurement": "Test (color change)", "setting": "K. pneumoniae; K. pneumoniae SHV-28, n=3", "value": "+"}, {"measurement": "Test (color change)", "setting": "K. pneumoniae; K. pneumoniae TEM-3, n=3", "value": "+"}, {"measurement": "Test (color change)", "setting": "K. pneumoniae; K. pneumoniae TEM-52, n=2", "value": "+"}, {"measurement": "Test (color change)", "setting": "K. pneumoniae; K. pneumoniae Wild-type penicillinase, n=2", "value": "−"}, {"measurement": "ESBL NDP Test from: Colonies", "setting": "E. cloacae; E. cloacae 09.57, SHV-12", "value": "+"}, {"measurement": "ESBL NDP Test from: Colonies", "setting": "E. cloacae; E. cloacae 10.75, CTX-M-15", "value": "+"}, {"measurement": "ESBL NDP Test from: Colonies", "setting": "E. cloacae; E. cloacae 10.87, CTX-M-15", "value": "+"}, {"measurement": "ESBL NDP Test from: Colonies", "setting": "E. cloacae; E. cloacae BG 1106 7725, Wild-type", "value": "−"}, {"measurement": "ESBL NDP Test from: Colonies", "setting": "E. cloacae; E. cloacae BG 1106 7746, Wild-type", "value": "−"}, {"measurement": "ESBL NDP Test from: Colonies", "setting": "E. cloacae; E. cloacae BG 1107 4118, Wild-type", "value": "−"}, {"measurement": "Test (color change)", "setting": "E. cloacae; E. cloacae CTX-M-14, n=1", "value": "+"}, {"measurement": "Test (color change)", "setting": "E. cloacae; E. cloacae CTX-M-15, n=17", "value": "+"}, {"measurement": "Test (color change)", "setting": "E. cloacae; E. cloacae GES-5, n=1", "value": "+"}, {"measurement": "Test (color change)", "setting": "E. cloacae; E. cloacae PER-1, n=1", "value": "+"}, {"measurement": "Test (color change)", "setting": "E. cloacae; E. cloacae SHV-5, n=1", "value": "+"}, {"measurement": "Test (color change)", "setting": "E. cloacae; E. cloacae SHV-12, n=6", "value": "+"}, {"measurement": "Test (color change)", "setting": "E. cloacae; E. cloacae TEM-3, n=2", "value": "+"}, {"measurement": "Test (color change)", "setting": "E. cloacae; E. cloacae VEB-1, n=1", "value": "+"}, {"measurement": "Test (color change)", "setting": "E. cloacae; E. cloacae Wild-type, chromosome-encoded cephalosporinase, n=5", "value": "−"}, {"measurement": "Test (color change)", "setting": "E. cloacae; E. cloacae, overexpressed chromosome-encoded cephalosporinase, n=2", "value": "−"}, {"measurement": "Test (color change)", "setting": "E. cloacae; E. cloacae, overexpressed chromosome-encoded cephalosporinase, n=3", "value": "+"}]}
